Assay results published in PubChem BioAssay AID192 (DTP/NCI, 2004).
“And” between values parts separate entries of the source, which are not always exact repeats. Identical values can stand only once. Toxic doses and inconclusive results are not listed.

Test system: BDF1 mice, B16 melanoma ip, median survival T/C
Test: NCI In Vivo Anticancer Drug Screen. Data for tumor model B16 Melanoma (intraperitoneal) in B6D2F1 (BDF1) mice
Details: endpoint: median survival time, higher = longer survival
In short: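 Antitumor activity is assessed in mice bearing a transplanted tumor, with survival or tumor size compared against vehicle-dosed controls and expressed as T/C.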

[1] = dose: 100.0 mg/kg/injection, schedule: Q04DX003 (ip), vehicle: Klucel (hydroxypropylcellulose) (HPC)
[2] = dose: 200.0 mg/kg/injection, schedule: Q04DX003 (ip), vehicle: Klucel (hydroxypropylcellulose) (HPC)
[3] = dose: 400.0 mg/kg/injection, schedule: Q04DX003 (ip), vehicle: Klucel (hydroxypropylcellulose) (HPC)
[4] = dose: 25.0 mg/kg/injection, schedule: Q01DX009 (ip), vehicle: Klucel (hydroxypropylcellulose) (HPC)
[5] = dose: 50.0 mg/kg/injection, schedule: Q01DX009 (ip), vehicle: Klucel (hydroxypropylcellulose) (HPC)
[6] = dose: 100.0 mg/kg/injection, schedule: Q01DX009 (ip), vehicle: Klucel (hydroxypropylcellulose) (HPC)
[7] = dose: 200.0 mg/kg/injection, schedule: Q01DX009 (ip), vehicle: Klucel (hydroxypropylcellulose) (HPC)
[8] = dose: 6.25 mg/kg/injection, schedule: Q01DX009 (ip), vehicle: saline with Tween-80
[9] = dose: 12.5 mg/kg/injection, schedule: Q01DX009 (ip), vehicle: saline with Tween-80
[10] = dose: 50.0 mg/kg/injection, schedule: Q04DX003 (ip), vehicle: Klucel (hydroxypropylcellulose) (HPC)

With `C[n+]1c(-c2cccc3ccccc23)c2cc(N)ccc2c2ccccc21` the T/C (dose: 1.56 mg/kg/injection, schedule: Q01DX009 (ip), vehicle: water) was 114 % of control, the T/C (dose: 3.12 mg/kg/injection, schedule: Q01DX009 (ip), vehicle: water) was 106 % of control and the T/C (dose: 6.25 mg/kg/injection, schedule: Q01DX009 (ip), vehicle: water) was 124 % of control. The T/C (dose: 12.5 mg/kg/injection, schedule: Q01DX009 (ip), vehicle: water) was 94 % of control.

In the case of `COc1ccc(N=C(C(=Nc2ccc(OC)cc2)c2ccccc2)c2ccccc2)cc1`, the T/C [1] is reported as 102 % of control, the T/C [2] is reported as 103 % of control and the T/C [3] is reported as 101 % of control.

With `Cc1c(N)nc([C@H](CC(N)=O)NC[C@H](N)C(N)=O)nc1C(=O)N[C@H](C(=O)N[C@H](C)[C@@H](O)[C@H](C)C(=O)N[C@H](C(=O)NCCc1nc(-c2nc(C(=O)NCCC[S+](C)C)cs2)cs1)[C@@H](C)O)C(OC1OC(CO)C(O)C(O)C1OC1OC(CO)C(O)C(OC(N)=O)C1O)c1cnc[nH]1` (some centres undefined) the T/C (dose: 1.0 mg/kg/injection, schedule: Q01DX009 (ip), vehicle: clinical formulation) was 114 % of control, the T/C (dose: 2.0 mg/kg/injection, schedule: Q01DX009 (ip), vehicle: clinical formulation) was 121 % of control and the T/C (dose: 3.9 mg/kg/injection, schedule: Q01DX009 (ip), vehicle: saline) was 102 % of control. For the same compound, the T/C (dose: 4.0 mg/kg/injection, schedule: Q01DX009 (ip), vehicle: clinical formulation) was 120 % of control, the T/C (dose: 7.8 mg/kg/injection, schedule: Q01DX009 (ip), vehicle: saline) was 102 % of control and the T/C (dose: 8.0 mg/kg/injection, schedule: Q01DX009 (ip), vehicle: clinical formulation) was 124 % of control. For the same compound, the T/C (dose: 15.6 mg/kg/injection, schedule: Q01DX009 (ip), vehicle: saline) was 102 % of control, the T/C (dose: 16.0 mg/kg/injection, schedule: Q01DX009 (ip), vehicle: clinical formulation) was 123 % of control and the T/C (dose: 31.3 mg/kg/injection, schedule: Q01DX009 (ip), vehicle: saline) was 109 % of control.

With `CCN(CC)CCSC(CO)c1ccccc1` (centres undefined) the T/C [4] was 103 % of control, the T/C [5] was 96 % of control and the T/C [6] was 93 % of control.

With `CCCCCCCCCCCCCCCCN(C(=S)c1ccccc1)c1ccccc1` the T/C [6] was 94 % of control, the T/C [7] was 95 % of control and the T/C (dose: 400.0 mg/kg/injection, schedule: Q01DX009 (ip), vehicle: Klucel (hydroxypropylcellulose) (HPC)) was 97 % of control.

`COc1cc(C(=O)c2cc3c(cc2C)OCO3)cc(OC)c1OC` was tested, and the T/C (dose: 6.25 mg/kg/injection, schedule: Q01DX009 (ip), vehicle: Klucel (hydroxypropylcellulose) (HPC)) was 105 % of control, the T/C (dose: 12.5 mg/kg/injection, schedule: Q01DX009 (ip), vehicle: Klucel (hydroxypropylcellulose) (HPC)) was 97 % of control and 115 % of control and the T/C [4] was 98 % of control and 103 % of control. The T/C [5] was 101 % of control and 112 % of control, the T/C [6] was 109 % of control and the T/C [7] was 104 % of control.

`COc1cc(/C=C/[N+](=O)[O-])c([N+](=O)[O-])cc1OC` was tested, and the T/C (dose: 6.25 mg/kg/injection, schedule: Q01DX009 (ip), vehicle: saline) was 102 % of control, the T/C (dose: 12.5 mg/kg/injection, schedule: Q01DX009 (ip), vehicle: saline) was 90 % of control and the T/C (dose: 25.0 mg/kg/injection, schedule: Q01DX009 (ip), vehicle: saline) was 92 % of control.

For `COc1c(Cl)c2c(c(OC)c1OC)-c1ccc(OC)c(=O)cc1C(NC(C)=O)CC2` (centres undefined), the T/C (dose: 0.38 mg/kg/injection, schedule: Q01DX009 (ip), vehicle: Klucel (hydroxypropylcellulose) (HPC)) was 118 % of control, the T/C (dose: 0.75 mg/kg/injection, schedule: Q01DX009 (ip), vehicle: Klucel (hydroxypropylcellulose) (HPC)) was 123 % of control and the T/C (dose: 3.0 mg/kg/injection, schedule: Q01DX009 (ip), vehicle: Klucel (hydroxypropylcellulose) (HPC)) was 109 % of control.

For `COCC(=O)CC(C)=O`, the T/C (dose: 75.0 mg/kg/injection, schedule: Q01DX009 (ip), vehicle: Klucel (hydroxypropylcellulose) (HPC)) was 122 % of control, the T/C (dose: 150.0 mg/kg/injection, schedule: Q01DX009 (ip), vehicle: Klucel (hydroxypropylcellulose) (HPC)) was 113 % of control and the T/C (dose: 300.0 mg/kg/injection, schedule: Q01DX009 (ip), vehicle: Klucel (hydroxypropylcellulose) (HPC)) was 105 % of control.

For `COc1cc(NS(C)(=O)=O)ccc1Nc1c2ccc(Cl)cc2nc2c(OC)cccc12`, the T/C (dose: 0.38 mg/kg/injection, schedule: Q01DX009 (ip), vehicle: saline with Tween-80) was 123 % of control, the T/C (dose: 0.75 mg/kg/injection, schedule: Q01DX009 (ip), vehicle: saline with Tween-80) was 110 % of control and the T/C (dose: 0.8 mg/kg/injection, schedule: Q01DX005 (iv), vehicle: water) was 96 % of control. For the same compound, the T/C (dose: 0.8 mg/kg/injection, schedule: Q04DX003 (iv), vehicle: water) was 100 % of control, the T/C (dose: 1.6 mg/kg/injection, schedule: Q01DX005 (iv), vehicle: water) was 104 % of control and the T/C (dose: 1.6 mg/kg/injection, schedule: Q04DX003 (iv), vehicle: water) was 92 % of control. For the same compound, the T/C (dose: 2.3 mg/kg/injection, schedule: Q01DX009 (ip), vehicle: other) was 156 % of control, the T/C (dose: 3.0 mg/kg/injection, schedule: Q01DX009 (ip), vehicle: saline with Tween-80) was 152 % of control and the T/C (dose: 3.13 mg/kg/injection, schedule: Q01DX009 (ip), vehicle: saline with Tween-80) was 178 % of control. For the same compound, the T/C (dose: 3.3 mg/kg/injection, schedule: Q01DX005 (iv), vehicle: water) was 106 % of control, the T/C (dose: 3.3 mg/kg/injection, schedule: Q04DX003 (iv), vehicle: water) was 96 % of control and the T/C (dose: 4.5 mg/kg/injection, schedule: Q01DX009 (ip), vehicle: other) was 184 % of control. For the same compound, the T/C [8] was 194 % of control, the T/C (dose: 6.5 mg/kg/injection, schedule: Q01DX005 (iv), vehicle: water) was 109 % of control and the T/C (dose: 6.5 mg/kg/injection, schedule: Q04DX003 (iv), vehicle: water) was 105 % of control. For the same compound, the T/C (dose: 8.0 mg/kg/injection, schedule: Q01DX009 (ip), vehicle: saline with Tween-80) was 178 % of control and 185 % of control, the T/C (dose: 9.0 mg/kg/injection, schedule: Q01DX009 (ip), vehicle: other) was 241 % of control and the T/C (dose: 9.0 mg/kg/injection, schedule: Q04DX003 (ip), vehicle: water) was 152 % of control. For the same compound, the T/C (dose: 12.0 mg/kg/injection, schedule: Q01DX009 (ip), vehicle: saline with Tween-80) was 190 % of control and 219 % of control, the T/C [9] was 236 % of control and the T/C (dose: 13.0 mg/kg/injection, schedule: Q04DX003 (iv), vehicle: water) was 111 % of control. The T/C (dose: 18.0 mg/kg/injection, schedule: Q01DX009 (ip), vehicle: saline with Tween-80) was 196 % of control, the T/C (dose: 18.0 mg/kg/injection, schedule: Q04DX003 (ip), vehicle: water) was 172 % of control and the T/C (dose: 36.0 mg/kg/injection, schedule: Q04DX003 (ip), vehicle: water) was 200 % of control.

For `C(=C\c1cccnc1)/c1ccncc1`, the T/C (dose: 66.0 mg/kg/injection, schedule: Q01DX009 (ip), vehicle: saline with Tween-80) was 96 % of control and the T/C (dose: 100.0 mg/kg/injection, schedule: Q01DX009 (ip), vehicle: saline with Tween-80) was 93 % of control.

For `CCCCCCC(=O)CCCC(C)CCCC(C)C` (centres undefined), the T/C [6] was 91 % of control, the T/C [1] was 105 % of control and the T/C [7] was 88 % of control. For the same compound, the T/C [2] was 94 % of control and the T/C [3] was 88 % of control.

In the case of `CO/C(=C\c1ccc(OC)cc1)C(=O)O`, the T/C [10] is reported as 94 % of control, the T/C [1] is reported as 100 % of control and the T/C [2] is reported as 111 % of control.

For `CC/C(=C(/CC)c1ccc(O)cc1)c1ccc(O)cc1`, the T/C [8] was 89 % of control, the T/C [9] was 89 % of control and the T/C (dose: 25.0 mg/kg/injection, schedule: Q01DX009 (ip), vehicle: saline with Tween-80) was 89 % of control and 102 % of control. The T/C (dose: 50.0 mg/kg/injection, schedule: Q01DX009 (ip), vehicle: saline with Tween-80) was 100 % of control and the T/C (dose: 200.0 mg/kg/injection, schedule: Q01DX009 (ip), vehicle: saline with Tween-80) was 97 % of control.

For `CC(=O)OCC(OC(C)=O)C(OC(C)=O)C(C#N)OC(C)=O` (centres undefined), the T/C (dose: 12.5 mg/kg/injection, schedule: Q04DX003 (ip), vehicle: Klucel (hydroxypropylcellulose) (HPC)) was 100 % of control, the T/C (dose: 25.0 mg/kg/injection, schedule: Q04DX003 (ip), vehicle: Klucel (hydroxypropylcellulose) (HPC)) was 95 % of control and the T/C [10] was 97 % of control.

For `CCC(=O)NCC1(c2ccccc2)CCN(CC2COc3ccccc3O2)CC1` (centres undefined), the T/C (dose: 25.0 mg/kg/injection, schedule: Q04DX003 (ip), vehicle: saline) was 116 % of control, the T/C (dose: 50.0 mg/kg/injection, schedule: Q04DX003 (ip), vehicle: saline) was 107 % of control and the T/C (dose: 100.0 mg/kg/injection, schedule: Q04DX003 (ip), vehicle: saline) was 105 % of control.

For `[Cl][Hg][CH]1CCC2OC1CC[CH]2[Hg][Cl]` (centres undefined), the T/C [8] was 104 % of control.

For `CN(CCO)/N=N/c1nc[nH]c1C(N)=O`, the T/C (dose: 50.0 mg/kg/injection, schedule: Q01DX009 (ip), vehicle: carboxymethylcellulose (CMC)) was 105 % of control.
